Test results reported in the NIST ThermoML archive (doi:10.1021/acs.jced.5b00838).

Assay: excess molar enthalpy (molar enthalpy of mixing); xn = mol fraction of the nth substance listed
Settings: 100 kPa, Liquid, isothermal titration calorimetry

CCCCCCOCC [1-ethoxyhexane] + CC#N
Settings | excess molar enthalpy [kcal/mol]
298.15 K, x2 = 0.0307 | 0.028
298.15 K, x2 = 0.0596 | 0.0608
298.15 K, x2 = 0.0868 | 0.0887
298.15 K, x2 = 0.1125 | 0.112
298.15 K, x2 = 0.1368 | 0.132
298.15 K, x2 = 0.1816 | 0.166
298.15 K, x2 = 0.222 | 0.192
298.15 K, x2 = 0.2586 | 0.212
298.15 K, x2 = 0.2919 | 0.228
298.15 K, x2 = 0.3223 | 0.241
298.15 K, x2 = 0.3759 | 0.26
298.15 K, x2 = 0.4217 | 0.271
298.15 K, x2 = 0.4612 | 0.278
298.15 K, x2 = 0.5038 | 0.282
298.15 K, x2 = 0.5401 | 0.283
298.15 K, x2 = 0.5715 | 0.282
298.15 K, x2 = 0.5988 | 0.279
298.15 K, x2 = 0.6274 | 0.275
298.15 K, x2 = 0.6521 | 0.27
298.15 K, x2 = 0.6738 | 0.265
298.15 K, x2 = 0.6959 | 0.258
298.15 K, x2 = 0.7006 | 0.255
298.15 K, x2 = 0.7152 | 0.251
298.15 K, x2 = 0.7222 | 0.247
298.15 K, x2 = 0.7322 | 0.245
298.15 K, x2 = 0.7452 | 0.238
298.15 K, x2 = 0.7473 | 0.239
298.15 K, x2 = 0.7608 | 0.232
298.15 K, x2 = 0.7698 | 0.226
298.15 K, x2 = 0.796 | 0.212
298.15 K, x2 = 0.8241 | 0.194
298.15 K, x2 = 0.8419 | 0.182
298.15 K, x2 = 0.8604 | 0.167
298.15 K, x2 = 0.8799 | 0.151
298.15 K, x2 = 0.9002 | 0.131
298.15 K, x2 = 0.9215 | 0.108
298.15 K, x2 = 0.9362 | 0.091
298.15 K, x2 = 0.9514 | 0.0718
298.15 K, x2 = 0.967 | 0.0504
298.15 K, x2 = 0.9832 | 0.0264
308.15 K, x2 = 0.0303 | 0.0333
308.15 K, x2 = 0.0588 | 0.0672
308.15 K, x2 = 0.0857 | 0.0959
308.15 K, x2 = 0.1111 | 0.121
308.15 K, x2 = 0.1352 | 0.142
308.15 K, x2 = 0.1795 | 0.177
308.15 K, x2 = 0.2196 | 0.204
308.15 K, x2 = 0.2559 | 0.226
308.15 K, x2 = 0.2889 | 0.242
308.15 K, x2 = 0.3192 | 0.256
308.15 K, x2 = 0.3726 | 0.275
308.15 K, x2 = 0.4182 | 0.287
308.15 K, x2 = 0.4577 | 0.294
308.15 K, x2 = 0.5002 | 0.298
308.15 K, x2 = 0.5366 | 0.299
308.15 K, x2 = 0.568 | 0.297
308.15 K, x2 = 0.5954 | 0.294
308.15 K, x2 = 0.6241 | 0.29
308.15 K, x2 = 0.6489 | 0.285
308.15 K, x2 = 0.6707 | 0.279
308.15 K, x2 = 0.6929 | 0.272
308.15 K, x2 = 0.7087 | 0.264
308.15 K, x2 = 0.7123 | 0.265
308.15 K, x2 = 0.7294 | 0.258
308.15 K, x2 = 0.73 | 0.256
308.15 K, x2 = 0.7446 | 0.251
308.15 K, x2 = 0.7526 | 0.246
308.15 K, x2 = 0.7582 | 0.245
308.15 K, x2 = 0.7767 | 0.233
308.15 K, x2 = 0.8023 | 0.217
308.15 K, x2 = 0.8297 | 0.198
308.15 K, x2 = 0.847 | 0.185
308.15 K, x2 = 0.8651 | 0.17
308.15 K, x2 = 0.884 | 0.152
308.15 K, x2 = 0.9037 | 0.132
308.15 K, x2 = 0.9243 | 0.108
308.15 K, x2 = 0.9385 | 0.0909
308.15 K, x2 = 0.9531 | 0.0718
308.15 K, x2 = 0.9683 | 0.0503
308.15 K, x2 = 0.9839 | 0.0263

CCCCCOCCC [1-propoxypentane] + CC#N
Settings | excess molar enthalpy [kcal/mol]
298.15 K, x2 = 0.031 | 0.041
298.15 K, x2 = 0.0602 | 0.0775
298.15 K, x2 = 0.0876 | 0.108
298.15 K, x2 = 0.1135 | 0.133
298.15 K, x2 = 0.1379 | 0.155
298.15 K, x2 = 0.183 | 0.191
298.15 K, x2 = 0.2236 | 0.219
298.15 K, x2 = 0.2604 | 0.24
298.15 K, x2 = 0.2938 | 0.256
298.15 K, x2 = 0.3243 | 0.27
298.15 K, x2 = 0.3781 | 0.288
298.15 K, x2 = 0.424 | 0.298
298.15 K, x2 = 0.4635 | 0.304
298.15 K, x2 = 0.5061 | 0.307
298.15 K, x2 = 0.5424 | 0.306
298.15 K, x2 = 0.5738 | 0.304
298.15 K, x2 = 0.6011 | 0.301
298.15 K, x2 = 0.6296 | 0.296
298.15 K, x2 = 0.6542 | 0.29
298.15 K, x2 = 0.6758 | 0.284
298.15 K, x2 = 0.6979 | 0.276
298.15 K, x2 = 0.7171 | 0.269
298.15 K, x2 = 0.734 | 0.262
298.15 K, x2 = 0.7491 | 0.255
298.15 K, x2 = 0.7625 | 0.248
298.15 K, x2 = 0.7644 | 0.242
298.15 K, x2 = 0.7829 | 0.232
298.15 K, x2 = 0.8022 | 0.221
298.15 K, x2 = 0.8226 | 0.207
298.15 K, x2 = 0.844 | 0.191
298.15 K, x2 = 0.8666 | 0.172
298.15 K, x2 = 0.8807 | 0.159
298.15 K, x2 = 0.8953 | 0.145
298.15 K, x2 = 0.9104 | 0.128
298.15 K, x2 = 0.926 | 0.11
298.15 K, x2 = 0.9421 | 0.089
298.15 K, x2 = 0.9531 | 0.0741
298.15 K, x2 = 0.9644 | 0.0577
298.15 K, x2 = 0.976 | 0.0399
298.15 K, x2 = 0.9879 | 0.0207
308.15 K, x2 = 0.0305 | 0.0427
308.15 K, x2 = 0.0592 | 0.0799
308.15 K, x2 = 0.0863 | 0.111
308.15 K, x2 = 0.1118 | 0.137
308.15 K, x2 = 0.136 | 0.16
308.15 K, x2 = 0.1806 | 0.197
308.15 K, x2 = 0.2208 | 0.225
308.15 K, x2 = 0.2572 | 0.247
308.15 K, x2 = 0.2904 | 0.265
308.15 K, x2 = 0.3207 | 0.278
308.15 K, x2 = 0.3742 | 0.297
308.15 K, x2 = 0.4199 | 0.309
308.15 K, x2 = 0.4594 | 0.315
308.15 K, x2 = 0.502 | 0.319
308.15 K, x2 = 0.5383 | 0.319
308.15 K, x2 = 0.5697 | 0.317
308.15 K, x2 = 0.6022 | 0.312
308.15 K, x2 = 0.6301 | 0.307
308.15 K, x2 = 0.6543 | 0.301
308.15 K, x2 = 0.6756 | 0.295
308.15 K, x2 = 0.6944 | 0.288
308.15 K, x2 = 0.7137 | 0.281
308.15 K, x2 = 0.7173 | 0.276
308.15 K, x2 = 0.7308 | 0.273
308.15 K, x2 = 0.7382 | 0.267
308.15 K, x2 = 0.7459 | 0.266
308.15 K, x2 = 0.7595 | 0.259
308.15 K, x2 = 0.7603 | 0.256
308.15 K, x2 = 0.7838 | 0.242
308.15 K, x2 = 0.8089 | 0.226
308.15 K, x2 = 0.8355 | 0.206
308.15 K, x2 = 0.8524 | 0.192
308.15 K, x2 = 0.8699 | 0.176
308.15 K, x2 = 0.8882 | 0.157
308.15 K, x2 = 0.9072 | 0.136
308.15 K, x2 = 0.9271 | 0.112
308.15 K, x2 = 0.9409 | 0.0938
308.15 K, x2 = 0.955 | 0.0737
308.15 K, x2 = 0.9695 | 0.0515
308.15 K, x2 = 0.9845 | 0.027

CCCCCCCOC [1-methoxyheptane] + CC#N
excess molar enthalpy [kcal/mol]
Settings | 298.15 K | 308.15 K
x2 = 0.0304 | – | 0.0322
x2 = 0.0307 | 0.0291 | –
x2 = 0.059 | – | 0.0602
x2 = 0.0595 | 0.0573 | –
x2 = 0.0859 | – | 0.0845
x2 = 0.0867 | 0.0816 | –
x2 = 0.1114 | – | 0.106
x2 = 0.1123 | 0.103 | –
x2 = 0.1354 | – | 0.125
x2 = 0.1366 | 0.121 | –
x2 = 0.1799 | – | 0.156
x2 = 0.1813 | 0.151 | –
x2 = 0.22 | – | 0.181
x2 = 0.2216 | 0.175 | –
x2 = 0.2563 | – | 0.201
x2 = 0.2582 | 0.194 | –
x2 = 0.2894 | – | 0.216
x2 = 0.2914 | 0.209 | –
x2 = 0.3197 | – | 0.229
x2 = 0.3218 | 0.221 | –
x2 = 0.3732 | – | 0.248
x2 = 0.3754 | 0.239 | –
x2 = 0.4188 | – | 0.26
x2 = 0.4212 | 0.25 | –
x2 = 0.4583 | – | 0.268
x2 = 0.4607 | 0.258 | –
x2 = 0.5008 | – | 0.273
x2 = 0.5033 | 0.263 | –
x2 = 0.5372 | – | 0.275
x2 = 0.5396 | 0.264 | –
x2 = 0.5686 | – | 0.275
x2 = 0.571 | 0.264 | –
x2 = 0.596 | – | 0.273
x2 = 0.5983 | 0.263 | –
x2 = 0.6246 | – | 0.269
x2 = 0.6269 | 0.259 | –
x2 = 0.6494 | – | 0.265
x2 = 0.6517 | 0.256 | –
x2 = 0.6712 | – | 0.261
x2 = 0.6733 | 0.251 | –
x2 = 0.6934 | – | 0.255
x2 = 0.6955 | 0.246 | –
x2 = 0.7111 | 0.239 | 0.255
x2 = 0.7148 | 0.24 | 0.249
x2 = 0.7318 | 0.234 | 0.248
x2 = 0.7322 | 0.232 | 0.243
x2 = 0.7469 | 0.228 | 0.238
x2 = 0.7547 | 0.223 | 0.237
x2 = 0.7604 | 0.223 | 0.231
x2 = 0.7692 | – | 0.227
x2 = 0.7786 | 0.212 | –
x2 = 0.7954 | – | 0.213
x2 = 0.8041 | 0.199 | –
x2 = 0.8236 | – | 0.195
x2 = 0.8313 | 0.182 | –
x2 = 0.8414 | – | 0.182
x2 = 0.8485 | 0.171 | –
x2 = 0.86 | – | 0.168
x2 = 0.8664 | 0.157 | –
x2 = 0.8795 | – | 0.151
x2 = 0.8851 | 0.141 | –
x2 = 0.8999 | – | 0.131
x2 = 0.9047 | 0.123 | –
x2 = 0.9212 | – | 0.109
x2 = 0.9251 | 0.101 | –
x2 = 0.936 | – | 0.0913
x2 = 0.9391 | 0.0851 | –
x2 = 0.9512 | – | 0.0721
x2 = 0.9536 | 0.0668 | –
x2 = 0.9669 | – | 0.0506
x2 = 0.9686 | 0.0464 | –
x2 = 0.9832 | – | 0.0265
x2 = 0.9841 | 0.0235 | –
